In brackets after ≈: the same amount, converted by molar mass. Read-outs that look alike come from different tables or passages of the source.
How the values were obtained:
PfKMO [1] = target: T1, PfKMO (Pseudomonas fluorescens, UniProt Q84HF5, C252S/C461S); experiment: biochemical; settings: for Km: substrates of PfKMO; for Mechanism of inhibition with respect to L-KYN / Mechanism of inhibition with respect to NADPH: PfKMO
T1 construct: made in house; host or cells: E. coli BL21 (DE3)
Procedure: saturating concentrations of the L-KYN and NADPH substrates. Data are plotted […]
(§1) consumption of NADPH at 340 nm upon addition of enzyme via a Cary 50 UV-Vis spectrophotometer (Agilent Technologies). Rates were determined from linear regression fits to the initial linear portion of the curves. All measurements were performed in triplicate. The IC50 values for inhibitors were obtained by plotting the percentage inhibition versus the inhibitor concentration and fitting to the Morrison equation16 (equation 1) using Origin 9.0 Software (OriginLab, Northampton, MA).
E + I + K!"" − E + I + K!"" ! − 4[E][I] where v0 is the enzyme activity without inhibitor, vi is the enzyme activity with ligand concentration [I], [E] is the enzyme concentration, [I] is the inhibitor concentration, K!"" is the apparent inhibition constant and IC = K!"" + [!] . If K!"" ≫ [!], IC ≈ […]
where Ki is the inhibition constant, [S] is the substrate concentration used in the assay and Km is the Michaelis-Menten constant17. […]
between Ki and Ki apparent values, as the conditions for measuring IC50 are different, Ki values can be used to compare with other reported KMO inhibitors.
Steady-state kinetic parameters for PfKMO were calculated by measuring initial rates […]
the observed rate of turnover (v) versus the varied substrate concentration were fitted to equation 2 using Origin 9.0 Software (OriginLab, Northampton, MA).
A B + K!! B + K!! A + K!!K!! where v is the initial rate of activity, Vmax is the maximum velocitie of the reaction, [A] and [B] are the substrate concentration, K!! and K!! are the Michaelis-Menten constant for different substrate and K!! is the inhibition (binding) constant of substrate A to the free enzyme while forming transitory complexes.18
Product inhibition studies were carried out by measuring reaction rates at varying […]
one substrate and varying concentrations of the other substrate. Inhibition studies with target compounds were carried out by measuring reaction rates at varying inhibitor concentrations at saturating concentrations of one substrate and varying concentrations of the other substrate. […]
were used to distinguish between different types of inhibition. The data were fitted to a straight line defined by the Lineweaver-Burke equation (equation 4), with the y intercept providing 1/Vmax and the x intercept giving -1/Km. […]

PfKMO [2] = target: T1, PfKMO; experiment: Stopped-flow reduction of flavin cofactor by NADPH; assay type: biochemical; settings: for Reduction rate of flavin cofactor: PfKMO with saturating ligand, 2 mM NADPH, 25 °C, anaerobic; for Stimulation of KMO reduction by NADPH: rapid mixing stopped-flow assays
Procedure: The reduction rate of the flavin cofactor by NADPH was measured using a stopped-flow spectrophotometer (Applied Photophysics Ltd), which was housed in an anaerobic glovebox (Belle Technology). […] The reduction of the flavin was monitored by the decrease in the absorbance of the flavin at 450 nm and transients were fitted to either double or triple exponentials.
Supplementary Figure 13. Reduction of flavin cofactor by NADPH in the presence and absence of ligands. Anaerobic mixtures of 10 µM PfKMO with or without ligand were mixed against anaerobic 2 mM NADPH on a stopped-flow spectrophotometer at 25℃. a, 10 µM PfKMO mixed with 2 mM NADPH; b, 10 µM

[3] = Stability in mouse hepatic microsomes; settings: for half-life at 1 µM: mouse, microsomes
Procedure: 3.6.3 Compound stability in mouse hepatic microsomes and rat hepatocytes
A microsomal stability assay was performed as described in the BioFocus Standard
Operating Procedure ADME-SOP-83, using pooled hepatic mouse
Test and control compounds (midazolam,
dextromethorphan), were prepared in DMSO and incubated at an initial concentration
in the presence of the cofactor, NADPH (1 mM). Aliquots were removed at 0, 5, 10,
20 and 40 minutes for termination of reactions and compound extraction with ACN
containing an analytical internal standard. Samples were centrifuged and the
supernatant fractions analysed for parent compound by mass spectrometry (LC-
MS/MS). The amount of compound remaining (expressed as %) was determined from
the MS response in each sample relative to that in the T = 0 samples (normalised for
internal standard). Ln plots of the % remaining were used to determine the half-life
the slope of the Ln % remaining vs time curve. The in vitro intrinsic clearance Clint

Homo sapiens KMO (HsKMO) = target: T2, Homo sapiens KMO (HsKMO) (Homo sapiens, UniProt O15229); experiment: KMO inhibition assay, NADPH oxidation at 340 nm (HsKMO); assay type: biochemical
T2 construct: GST; made in house
Text: (§2) A combination of ligand- and structural-based virtual screening approaches (see supporting information for details) was used to identify an initial library of >1000 compounds that may be suitable as potential KMO inhibitors. These compounds were screened for inhibition of Pseudomonas fluorescens KMO (PfKMO) and Homo sapiens KMO (HsKMO) using high-throughput assays by monitoring the time-dependent oxidation of NADPH at 340 nm[23].
(§3) Small-molecule compounds were supplied by Biofocus (Charles River Laboratories International Inc., MA, USA), which were identified in silico as potential inhibitors (further details are described in the Supplementary Methods). Initial inhibition assays were performed against Pseudomonas fluorescens KMO (PfKMO) and Homo sapiens KMO (HsKMO) by monitoring the time-dependent absorbance change of NADPH at 340 nm. Purified KMO protein (200 nM) was incubated in 100 µL reaction buffer (20 mM potassium phosphate pH 8.0, 7 mM 2-mercaptoethanol) containing 100 μM NADPH, 100 μM L-Kyn and 20 μM potential inhibitors in 96-well plates. […] The inhibitors identified in the initial screens were validated and re-assayed individually in a 1 cm path-length quartz micro cuvette. […] Suppliers for target inhibitor compounds are listed in Supplementary Table 11.
Supplementary Figure 1. Examples of inhibition data used to generate IC50 values for selected KMO inhibitors.
(§4) NADPH (100µM) were added into reaction buffer (HsKMO: 20mM potassium phosphate pH 8.0, 7 mM 2-mercaptoethanol; PfKMO: 20 mM HEPES, 10mM sodium acetate, pH 7.5, 2mM DTT). The reaction was initiated by the addition of KMO enzyme (HsKMO: 0.5µM; PfKMO: 0.1 µM). KMO activity was measured in the presence of a range of inhibitor concentrations. […]
(§5) 3.5 Steady-state enzymatic assays.
(§6) Initial screening assays and determination of IC50 values for each potential inhibitor compound were carried out using either 0.1 µM PfKMO or 0.5 µM HsKMO at fixed […]
(§7) (HsKMO: 20 mM potassium phosphate pH 8.0, 7 mM 2-mercaptoethanol; PfKMO:
(§8) 20 mM HEPES, 10 mM sodium acetate, pH 7.5, 2 mM DTT). KMO activity was measured in the presence of a range of inhibitor concentrations by monitoring the […]
as §1
E + I + K!"" − E + I + K!"" ! − 4[E][I] where v0 is the enzyme activity without inhibitor, vi is the enzyme activity with ligand

[4] = target: T3, Pseudomonas fluorescens KMO (PfKMO) (Pseudomonas fluorescens, UniProt Q84HF5, C252S/C461S); experiment: biochemical
T3 construct: made in house; host or cells: E. coli BL21 (DE3)
Text: as §2, §3
as §4, with “Supplementary Figure 1. Examples of inhibition data used to generate IC50 values for selected KMO inhibitors. Fixed concentration of L -KYN (200 µM) and NADPH” for “NADPH”
as §5, §6, §7, §8
as §1, with “MA). […]” for “MA).”

[5] = Kinetic solubility in PBS, pH 7.4 (2% DMSO); assay type: physicochemical; settings: PBS with 2% DMSO, pH 7.4, aqueous buffer, kinetic from dmso stock, PBS, pH 7.4 (2% DMSO)
[6] = Mouse brain penetration study; assay type: in vivo, female C57BL6 mice; settings: mouse
Procedure: Inhibitor 1 (and prodrugs 1a, 1b, 1c and 1d) was dosed as a bolus solution intravenously at 1 mg free base/kg (dose volume: 5 mL/kg; dose vehicle: 5% DMSO; 95% saline (inhibitor 1) or 5% DMSO; 40% PEG400; 55% MilliQ H2O (prodrugs 1a, 1b, 1c and 1d)) to female C57BL6 mice (n = 6). At 5 min and 60 min following intravenous bolus injection of test compound, mice (n = 3/timepoint) were placed under terminal anaesthesia with isofluorane. A blood sample was taken by cardiac puncture, the […] decapitated and the brain removed. Brain weight was noted and each brain homogenised with two volumes of methanol (2 mL/g brain). Each blood sample was diluted with distilled water (1:10). Diluted blood and the brain homogenates were then stored frozen until preparation and analysis by UPLC-MS/MS. For each mouse at each timepoint for 1, the concentration in brain (ng/g) was divided by the concentration in blood (ng/mL) to give a brain:blood ratio. The mean value obtained was quoted. For prodrugs 1a to 1d, only the concentration of 1 in blood (ng/mL) and brain (ng/g) was reported.
A rapid and sensitive ultra-performance chromatography/tandem mass spectrometry (UPLC-MS/MS) method was developed and validated for the determination of inhibitor 1 and prodrug 1b (rat only). Chromatographic analysis was conducted on a Waters Acquity™ UPLC system. Chromatographic separation was performed with an Acquity™ UPLC BEH C18 column (50 × 2.1 mm, 1.7 µm, 130Å; Waters Corp.) maintained at 40 °C in a column oven. The mobile phase consisted of water with 0.01% formic acid and ACN with 0.01 % formic acid and it was delivered at a flow rate of 0.6 mL/min under gradient eluent conditions within an analysis cycle time of 3 min. The mass detection was conducted on a Waters Xevo™ TQs mass spectrometer equipped with a ScanWave™ technology. Quantitation of the analyte was performed in electrospray positive ionisation mode (ESI^+) using multiple reaction monitoring. The optimised fragmentation transition was m/z = 270.17 → 196.19 (mouse) or m/z = 270.17 → 223.76 (rat) for inhibitor 1 and m/z = 297.83 → 195.74 for prodrug 1b (rat).
Sample extraction for blood and brain homogenate was by protein precipitation (1:3 or 1:6) using ACN containing suitable internal standard. Extracts were vortexed followed by centrifugation (2800 rpm for 10 min). An aliquot of each supernatant was then diluted two-fold in distilled water ready for analysis by UPLC-MS/MS.
The weighted 1/x^2 calibration line was linear in the dynamic range of 1–5000 ng/mL for inhibitor 1 and 1–1000 ng/mL for prodrug 1b with a correlation coefficient (r^2) > 0.99 (inhibitor 1) or 0.98 (prodrug 1b). The quality control samples (QC) were prepared by using the same spiking scheme as the calibration samples and up to four different target concentration brain levels: 2 ng/mL (LQC), 40 ng/mL (MQC), 100 ng/mL (HQC) and 2000 ng/mL. Data collection, peak integration and calculations were performed using MassLynx software, version 2.1.

[7] = Half-life Mean, mouse hepatic microsomes
[8] = Half-life n=1, mouse hepatic microsomes
[9] = Half-life n=2, mouse hepatic microsomes
[10] = 1 mg/kg i.v., 5 min, single mice, analyte inhibitor 1 (also after prodrugs) or 1h

T2 sequence (O15229 whole entry): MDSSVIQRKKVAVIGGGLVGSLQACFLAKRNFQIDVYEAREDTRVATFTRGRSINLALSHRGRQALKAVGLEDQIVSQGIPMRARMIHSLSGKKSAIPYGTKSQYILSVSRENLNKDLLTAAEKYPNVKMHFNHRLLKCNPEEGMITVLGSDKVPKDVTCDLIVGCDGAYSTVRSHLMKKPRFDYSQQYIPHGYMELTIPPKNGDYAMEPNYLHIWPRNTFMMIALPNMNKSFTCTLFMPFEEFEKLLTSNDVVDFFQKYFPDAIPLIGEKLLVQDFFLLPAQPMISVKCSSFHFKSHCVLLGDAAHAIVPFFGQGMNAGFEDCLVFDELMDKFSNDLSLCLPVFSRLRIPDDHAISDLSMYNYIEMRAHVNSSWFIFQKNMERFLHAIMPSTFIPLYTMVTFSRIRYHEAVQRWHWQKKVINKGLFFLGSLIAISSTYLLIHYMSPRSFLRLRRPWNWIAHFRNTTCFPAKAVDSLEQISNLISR
T1 sequence (Q84HF5 whole entry C252S/C461S): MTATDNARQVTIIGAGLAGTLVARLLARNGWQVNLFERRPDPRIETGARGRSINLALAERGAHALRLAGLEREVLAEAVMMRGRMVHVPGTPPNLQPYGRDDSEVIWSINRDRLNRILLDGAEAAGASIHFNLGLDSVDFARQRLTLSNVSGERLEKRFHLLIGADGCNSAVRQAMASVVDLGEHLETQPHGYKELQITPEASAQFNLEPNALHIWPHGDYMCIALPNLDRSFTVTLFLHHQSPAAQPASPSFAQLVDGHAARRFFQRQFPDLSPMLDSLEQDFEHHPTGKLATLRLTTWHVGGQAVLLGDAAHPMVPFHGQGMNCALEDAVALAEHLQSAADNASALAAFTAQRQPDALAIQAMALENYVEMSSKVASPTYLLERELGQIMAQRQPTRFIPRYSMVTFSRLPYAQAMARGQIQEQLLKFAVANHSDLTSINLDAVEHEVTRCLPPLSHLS
T3 sequence (Q84HF5 whole entry C252S/C461S): as above

## Nc1ccccc1C(=O)C[C@H](N)C(=O)O [L-KYN, reference compound]
PfKMO [1]
  Km: 12.1 ± 1.4 µM
PfKMO [2]
  Reduction rate of flavin cofactor: 339 ± 16.6 s⁻¹

## Cc1ncc2n1-c1ccc(Cl)cc1C(c1ccccc1F)=NC2 [Midazolam, reference compound]
[3]; mouse hepatic microsomes
  Mean intrinsic clearance: > 554 µL/min/mg microsome protein
[3]; [7]
  half-life at 1 µM: < 5 min
[3]; [8]
  half-life at 1 µM: < 5 min
[3]; [9]
  half-life at 1 µM: < 5 min

## COc1ccc2c(c1)[C@]13CCCC[C@@H]1[C@H](C2)N(C)CC3 [Dextromethorphan, reference compound]
[3]; mouse hepatic microsomes
  Mean intrinsic clearance: 97 µL/min/mg microsome protein
[3]; [7]
  half-life at 1 µM: 29 min
[3]; [8]
  half-life at 1 µM: 28 min
[3]; [9]
  half-life at 1 µM: 29 min

## Cn1c(C(=O)N[C@@H](C(=O)O)c2ccccc2)cc2cc(Cl)ccc21 [compound 4, (R)-2-(5-chloro-1-methyl-1H-indole-2-carboxamido)-2-phenylacetic acid]
PfKMO [1]
  Ki: 3 ± 0.24 µM
  Mechanism of inhibition with respect to L-KYN: competitive inhibitor
  Mechanism of inhibition with respect to NADPH: mixed type inhibitors
Homo sapiens KMO (HsKMO)
  IC50: 6.1 µM
[4]
  IC50: 59.8 ± 7.14 µM
PfKMO [2]
  Reduction rate of flavin cofactor: 0.03 ± 0.005 s⁻¹
  Stimulation of KMO reduction by NADPH: do not stimulate

## COC(=O)[C@H]1[C@H]2C[C@@H]3c4[nH]c5cc(OC)ccc5c4CCN3C[C@H]2C[C@@H](OC(=O)c2cc(OC)c(OC)c(OC)c2)[C@@H]1OC [Reserpine, reference compound]
[5]; read-out: Solubility Mean
  solubility at 2 h: 9 µM (≈ 5.48 µg/mL)
[5]; read-out: Solubility n=1
  solubility at 2 h: 9 µM (≈ 5.48 µg/mL)
[5]; read-out: Solubility n=2
  solubility at 2 h: 9 µM (≈ 5.48 µg/mL)

## O=C(O)c1ccc(-c2cccc(Cl)c2Cl)o1 [compound 9, 5-(2,3-dichlorophenyl) furan-2-carboxylic acid]
PfKMO [1]
  Ki: 0.15 ± 0.01 µM
  Mechanism of inhibition with respect to L-KYN: competitive inhibitor
  Mechanism of inhibition with respect to NADPH: competitive inhibitor
Homo sapiens KMO (HsKMO)
  IC50: 39.6 µM
[4]
  IC50: 4.3 ± 0.2 µM
PfKMO [2]
  Reduction rate of flavin cofactor: 0.03 ± 0.001 s⁻¹
  Stimulation of KMO reduction by NADPH: do not stimulate

## Cc1cc2c(c(C)c1Cl)N(CC(=O)OC(C)(C)C)C(=O)CO2 [1d]
Homo sapiens KMO (HsKMO)
  IC50: > 300 µM
[6]; [10]
  In blood: ≤ LLoQ
  In brain: ≤ LLoQ
[6]; 1 mg/kg i.v., 60 min, single mice, analyte inhibitor 1 (also after prodrugs) or 1h
  In brain: ≤ LLoQ
[6]; prodrug 1 mg/kg i.v. bolus
  Release of 1 in blood and brain: undetectable
[4]
  IC50: ~200 µM

## NC(=O)C1=CN([C@@H]2O[C@H](COP(=O)(O)OP(=O)(O)OC[C@H]3O[C@@H](n4cnc5c(N)ncnc54)[C@H](OP(=O)(O)O)[C@@H]3O)[C@@H](O)[C@H]2O)C=CC1 [NADPH, reference compound]
PfKMO [1]; read-out: Km
  Km: 16.9 ± 1.5 µM
